The text below walks through data of patent publication US9156796B2, “Benzoimidazole-carboxylic acid amide derivatives as APJ receptor modulators” (SANOFI, priority 2013, dated 2015).

In this assay the target is T1, human apelin receptor (Homo sapiens, UniProt P35414).
T1 construct: expressed in transfected cells
T1 sequence (P35414 1-380): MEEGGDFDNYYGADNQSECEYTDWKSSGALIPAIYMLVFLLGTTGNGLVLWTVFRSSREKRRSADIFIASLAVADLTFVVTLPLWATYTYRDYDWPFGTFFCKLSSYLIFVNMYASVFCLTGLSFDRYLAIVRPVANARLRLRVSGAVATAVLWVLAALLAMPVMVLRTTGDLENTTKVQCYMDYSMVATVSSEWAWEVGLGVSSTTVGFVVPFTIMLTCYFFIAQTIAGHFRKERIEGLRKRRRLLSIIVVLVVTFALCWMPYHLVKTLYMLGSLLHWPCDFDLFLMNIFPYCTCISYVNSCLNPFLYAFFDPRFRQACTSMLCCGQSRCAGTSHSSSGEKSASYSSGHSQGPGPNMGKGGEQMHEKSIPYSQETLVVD
Kind of assay: Determination of agonism on the human apelin receptor by a calcium fluorescence assay (FLIPR). The format is cell-based. To be noted: HEK293 cells stably transfected with human apelin receptor and Giaq protein, Fluo-4 calcium fluorescence, read-out: EC50 (APJ agonism). The gist of the method:
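Agonist EC50s come from peak intracellular calcium transients recorded by FLIPR Tetra, scaled to the 1 μM apelin-13 maximum per plate. Test system: HEK293 stably transfected with human apelin receptor plus Giaq, Fluo-4-loaded (4 μM, 1 h, 37 °C, pH 7.4 buffer with probenecid); ≥7 concentrations, triplicates.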
On to `CCC(CC)n1c(Cc2cccs2)nc2cc(C(=O)N[C@@H](CC3CC3)C(=O)O)ccc21` [Example 21, (S)-3-Cyclopropyl-2-{[1-(1-ethyl-propyl)-2-thiophen-2-ylmethyl-1H-benzoimidazole-5-carbonyl]-amino}-propionic acid], for which the EC50 was determined as 0.443 µM.
The result for `CCC(CC)n1c(Cc2cccs2)nc2cc(C(=O)N[C@@H](CC(C)C)C(=O)N3CC(C(=O)O)C3)ccc21` [Example 411, 1-((S)-2-{[1-(1-Ethyl-propyl)-2-thiophen-2-ylmethyl-1H-benzoimidazole-5-carbonyl]-amino}-4-methyl-pentanoyl)-azetidine-3-carboxylic acid] reads 0.822 µM.
The result for `CCC(CC)n1c(Cc2cccs2)nc2cc(C(=O)N[C@@H](Cc3ccc(Cl)cc3)C(=O)O)ccc21` [Example 20, (S)-3-(4-Chloro-phenyl)-2-{[1-(1-ethyl-propyl)-2-thiophen-2-ylmethyl-1H-benzoimidazole-5-carbonyl]-amino}-propionic acid] reads 1.83 µM; that for `CCC(CC)n1c(Cc2cccs2)nc2cc(C(=O)NC(CC(C)C)c3cccnc3)ccc21` (stereo not drawn) [Example 478, 1-(1-Ethyl-propyl)-2-thiophen-2-ylmethyl-1H-benzoimidazole-5-carboxylic acid (3-methyl-1-pyridin-3-yl-butyl)-amide], 3.15 µM.
Take `CCC(CC)n1c(Cc2cccs2)nc2cc(C(=O)N[C@@H](Cc3ccccc3)C(=O)O)ccc21` [Example 124, (S)-2-{[1-(1-Ethyl-propyl)-2-thiophen-2-ylmethyl-1H-benzoimidazole-5-carbonyl]-amino}-3-phenyl-propionic acid]: the EC50 worked out at 9.35 µM.
As for `CCC(CC)n1c(Cc2cccs2)nc2cc(C(=O)N[C@@H](CC(C)C)C(=O)NC3CCN(Cc4cccc(F)c4)CC3)ccc21` [Example 301, 1-(1-Ethyl-propyl)-2-thiophen-2-ylmethyl-1H-benzoimidazole-5-carboxylic acid {(S)-1-[1-(3-fluoro-benzyl)-piperidin-4-ylcarbamoyl]-3-methyl-butyl}-amide], the EC50 worked out at 2.46 µM.
Take `CCC(CC)n1c(Cc2cccs2)nc2cc(C(=O)N[C@@H](CC(C)C)C(=O)N3CCC(N4CCCCC4)C3)ccc21` (stereo partly drawn) [Example 299, 1-(1-Ethyl-propyl)-2-thiophen-2-ylmethyl-1H-benzoimidazole-5-carboxylic acid [(S)-3-methyl-1-(3-piperidin-1-yl-pyrrolidine-1-carbonyl)-butyl]-amide]: the 50% effective concentration (EC50) is 0.776 µM.
For the molecule `C[C@@H]1CCCC[C@H]1n1c(Cc2cncs2)nc2cc(C(=O)NC(CC(=O)O)CC3CCCCC3)ccc21` (stereo partly drawn) [Example 65, 4-Cyclohexyl-3-{[1-((1R,2R)-2-methyl-cyclohexyl)-2-thiazol-5-ylmethyl-1H-benzoimidazole-5-carbonyl]-amino}-butyric acid], the EC50 is 0.056 µM.
As for `CCC(CC)n1c(Cc2cccs2)nc2cc(C(=O)N[C@@H](CCSC)C(=O)O)ccc21` [Example 123, (S)-2-{[1-(1-Ethyl-propyl)-2-thiophen-2-ylmethyl-1H-benzoimidazole-5-carbonyl]-amino}-4-methylsulfanyl-butyric acid], the EC50 was found to be 1.88 µM.
Turning to `CCC(CC)n1c(Cc2cccs2)nc2cc(C(=O)N[C@H](CC(=O)O)Cc3ccccc3)ccc21` [Example 100, (S)-3-{[1-(1-Ethyl-propyl)-2-thiophen-2-ylmethyl-1H-benzoimidazole-5-carbonyl]-amino}-4-phenyl-butyric acid], the EC50 was 5.84 µM.
The result for `CC(C)CC(C)n1c(Cc2cccs2)nc2cc(C(=O)N[C@@H](CC(C)C)C(=O)O)ccc21` (stereo partly drawn) [Example 166, (S)-2-{[1-(1,3-Dimethyl-butyl)-2-thiophen-2-ylmethyl-1H-benzoimidazole-5-carbonyl]-amino}-4-methyl-pentanoic acid] reads 3.04 µM; that for `CCC(CC)n1c(Cc2cccs2)nc2cc(C(=O)N[C@@H](CC(C)C)C(=O)N(C)Cc3ccc(OC)cc3)ccc21` [Example 372, 1-(1-Ethyl-propyl)-2-thiophen-2-ylmethyl-1H-benzoimidazole-5-carboxylic acid {(S)-1-[(4-methoxy-benzyl)-methyl-carbamoyl]-3-methyl-butyl}-amide], 13.2 µM; that for `C[C@@H]1CCCC[C@H]1n1c(Cc2cncs2)nc2cc(C(=O)N[C@@H](CC3CCCCC3)C(=O)O)ccc21` [Example 37, (S)-3-Cyclohexyl-2-{[1-((1R,2R)-2-methyl-cyclohexyl)-2-thiazol-5-ylmethyl-1H-benzoimidazole-5-carbonyl]-amino}-propionic acid], 0.886 µM.
Take `CCC(CC)n1c(Cc2cccs2)nc2cc(C(=O)N[C@@H](CC(C)C)C(=O)N3CCN(c4ccccn4)CC3)ccc21` [Example 312, 1-(1-Ethyl-propyl)-2-thiophen-2-ylmethyl-1H-benzoimidazole-5-carboxylic acid [(S)-3-methyl-1-(4-pyridin-2-yl-piperazine-1-carbonyl)-butyl]-amide]: the EC50 was 2.96 µM.
The result for `C[C@@H]1CCCC[C@H]1n1c(Cc2cccs2)nc2cc(C(=O)NC(CCC(F)(F)F)C(=O)O)ccc21` (stereo partly drawn) [Example 27, 5,5,5-Trifluoro-2-{[1-((1R,2R)-2-methyl-cyclohexyl)-2-thiophen-2-ylmethyl-1H-benzoimidazole-5-carbonyl]-amino}-pentanoic acid] reads 1.86 µM; that for `CCC(CC)n1c(Cc2cccs2)nc2cc(C(=O)NC(CC(C)C)c3nc(C)c(C)s3)ccc21` (stereo not drawn) [Example 480, 1-(1-Ethyl-propyl)-2-thiophen-2-ylmethyl-1H-benzoimidazole-5-carboxylic acid [1-(4,5-dimethyl-thiazol-2-yl)-3-methyl-butyl]-amide], 20 µM.
The value for `CCC(CC)C(CC(=O)O)NC(=O)c1ccc2c(c1)nc(Cc1cccs1)n2C(CC)CC` (stereo not drawn) [Example 59, 4-Ethyl-3-{[1-(1-ethyl-propyl)-2-thiophen-2-ylmethyl-1H-benzoimidazole-5-carbonyl]-amino}-hexanoic acid] was 0.576 µM.
Consider `CCC(CC)n1c(Cc2cccs2)nc2cc(C(=O)N[C@@H](CC(C)C)[C@@H](O)C(=O)O)ccc21` [Example 67, (2R,3S)-3-{[1-(1-Ethyl-propyl)-2-thiophen-2-ylmethyl-1H-benzoimidazole-5-carbonyl]-amino}-2-hydroxy-5-methyl-hexanoic acid], for which the EC50 was 0.079 µM.
`CCC(CC)n1c(Cc2cccs2)nc2cc(C(=O)N[C@@H](CC(C)C)C(=O)N3CC(C)OC(C)C3)ccc21` (stereo partly drawn) [Example 229, 1-(1-Ethyl-propyl)-2-thiophen-2-ylmethyl-1H-benzoimidazole-5-carboxylic acid [(S)-1-(2,6-dimethyl-morpholine-4-carbonyl)-3-methyl-butyl]-amide]: the EC50 was 1.94 µM.
The value for `O=C(N[C@@H](CC1CCCCC1)C(=O)O)c1ccc2c(c1)nc(Cc1cccs1)n2C1CCCCC1C(F)(F)F` (stereo partly drawn) [Example 17, (S)-3-Cyclohexyl-2-{[2-thiophen-2-ylmethyl-1-(2-trifluoromethyl-cyclohexyl)-1H-benzoimidazole-5-carbonyl]-amino}-propionic acid] was 0.935 µM; that for `Cc1ccc(Cc2nc3cc(C(=O)N[C@@H](CC(C)C)C(=O)O)ccc3n2C2CCCCC2C)s1` (stereo partly drawn) [Example 144, (S)-4-Methyl-2-{[1-(2-methyl-cyclohexyl)-2-(5-methyl-thiophen-2-ylmethyl)-1H-benzoimidazole-5-carbonyl]-amino}-pentanoic acid] was 23 µM; that for `CCC(CC)n1c(Cc2cccs2)nc2cc(C(=O)N[C@@H](CC(C)C)C(=O)NC3CCCC3)ccc21` [Example 237, 1-(1-Ethyl-propyl)-2-thiophen-2-ylmethyl-1H-benzoimidazole-5-carboxylic acid ((S)-1-cyclopentylcarbamoyl-3-methyl-butyl)-amide] was 2.48 µM.
Turning to `CCC(CC)n1c(Cc2ccccc2)nc2cc(C(=O)N[C@H](CC(=O)O)CC(C)C)ccc21` [Example 157, (S)-3-{[2-Benzyl-1-(1-ethyl-propyl)-1H-benzoimidazole-5-carbonyl]-amino}-5-methyl-hexanoic acid], the EC50 was 10 µM.
The result for `CCC(CC)n1c(Cc2cccs2)nc2cc(C(=O)N[C@@H](CC(C)C)[C@H](O)CC(=O)O)ccc21` [Example 76, (3R,4S)-4-{[1-(1-Ethyl-propyl)-2-thiophen-2-ylmethyl-1H-benzoimidazole-5-carbonyl]-amino}-3-hydroxy-6-methyl-heptanoic acid] reads 0.062 µM; that for `CCC(CC)n1c(Cc2cccs2)nc2cc(C(=O)N[C@@H](CC(C)C)CS(=O)(=O)c3nnc[nH]3)ccc21` [Example 484, 1-(1-Ethyl-propyl)-2-thiophen-2-ylmethyl-1H-benzoimidazole-5-carboxylic acid [(S)-3-methyl-1-(4H-[1,2,4]triazole-3-sulfonylmethyl)-butyl]-amide], 0.014 µM; that for `CCC(CC)n1c(Cc2cccs2)nc2cc(C(=O)N[C@@H](CC(C)C)C(=O)NCC#N)ccc21` [Example 403, 1-(1-Ethyl-propyl)-2-thiophen-2-ylmethyl-1H-benzoimidazole-5-carboxylic acid [(S)-1-(cyanomethyl-carbamoyl)-3-methyl-butyl]-amide], 1.61 µM.
The result for `CCC(C)Cn1c(Cc2cccs2)nc2cc(C(=O)N[C@@H](CC(C)C)C(=O)O)ccc21` (stereo partly drawn) [Example 113, (S)-4-Methyl-2-{[1-(2-methyl-butyl)-2-thiophen-2-ylmethyl-1H-benzoimidazole-5-carbonyl]-amino}-pentanoic acid] reads 21.7 µM.

Broadly, the EC50 is the concentration needed to bring the measured effect to its halfway point.
